“Also recorded” adds a separate entry of the source. Read-outs that look alike come from different tables or passages of the source.
Key:
[1] = molecular target: T1, human A3 adenosine receptor (Homo sapiens, UniProt P0DMS8); assay: [3H]MRE3008F20 binding to human A3 receptors expressed in CHO cells; settings: for Ki, [3H]MRE3008F20 binding to human A3 receptors expressed in CHO cells: geometric mean (95% confidence interval), >1000 = no appreciable binding
T1 construct: expressed in transfected cells; host or cells: CHO cells (membranes)
T1 sequence (P0DMS8 1-318): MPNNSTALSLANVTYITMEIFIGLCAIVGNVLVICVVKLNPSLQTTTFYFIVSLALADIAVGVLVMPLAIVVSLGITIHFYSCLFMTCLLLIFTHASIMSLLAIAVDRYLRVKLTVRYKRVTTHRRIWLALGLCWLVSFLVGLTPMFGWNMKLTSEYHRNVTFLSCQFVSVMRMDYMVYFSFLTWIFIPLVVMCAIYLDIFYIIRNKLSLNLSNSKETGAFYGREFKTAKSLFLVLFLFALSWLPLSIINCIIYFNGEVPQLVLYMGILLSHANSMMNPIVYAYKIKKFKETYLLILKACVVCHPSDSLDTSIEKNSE
Method: (§1) The cells were grown adherently and maintained in Dulbecco's modified Eagle's medium with nutrient mixture F12 without nucleosides at 37° C. in 5% CO2/95% air. The cells were washed with phosphate-buffered saline and scraped off flasks in ice cold hypotonic buffer ([…] Tris HCl, 2 mM EDTA, pH 7.4). The cell suspension was homogenized with a Polytron and the homogenate was centrifuged for 30 minutes at 48,000 g. The resultant membrane pellet was re-suspended in 50 mM Tris HCl buffer at pH 7.4 for A1 adenosine receptors; in 50 mM Tris HCl 10 mM MgCl, at pH 7.4 for A2A adenosine receptors; in 50 mM Tris HCl, 10 mM MgCl2, 1 mM EDTA, at pH 7.4 for A3 adenosine receptors and were utilized for binding assays.
Binding of [^3H]-MRE3008-F20 to CHO cells transfected with the human recombinant A3 adenosine receptors was performed according to Varani et al., 2000. Competition experiments were carried out in duplicate in a final volume of 250 μl in test tubes containing 1 nM [^3H]-MRE3008-F20, 50 mM Tris HCl buffer, […] MgCl2, pH 7.4 and 100 μl of diluted membranes (50 μg of protein/assay) and at least 6–8 different concentrations of examined ligands for 120 minutes at 4° C.
(§2) The filter bound radioactivity was counted on Top Count (efficiency 57%) with Micro-Scint 20.
(§3) The filter bound radioactivity was counted on a Top Count brand Microplate Scintillation Counter (efficiency 57%) with Micro-Scint 20. […] Inhibitory binding constant. […] Results and Discussion

[2] = molecular target: T2, human A2A adenosine receptor (Homo sapiens, UniProt P29274); assay: [3H]ZM241385 binding to human A2A receptors expressed in CHO cells; settings: for Ki: read-out: Ki, [3H]ZM241385 binding to human A2A receptors expressed in CHO cells; for Ki, [3H]ZM241385 binding to human A2A receptors expressed in CHO cells: geometric mean (95% confidence interval), >1000 = no appreciable binding
T2 construct: expressed in transfected cells; host or cells: CHO cells (membranes)
T2 sequence (P29274 whole entry): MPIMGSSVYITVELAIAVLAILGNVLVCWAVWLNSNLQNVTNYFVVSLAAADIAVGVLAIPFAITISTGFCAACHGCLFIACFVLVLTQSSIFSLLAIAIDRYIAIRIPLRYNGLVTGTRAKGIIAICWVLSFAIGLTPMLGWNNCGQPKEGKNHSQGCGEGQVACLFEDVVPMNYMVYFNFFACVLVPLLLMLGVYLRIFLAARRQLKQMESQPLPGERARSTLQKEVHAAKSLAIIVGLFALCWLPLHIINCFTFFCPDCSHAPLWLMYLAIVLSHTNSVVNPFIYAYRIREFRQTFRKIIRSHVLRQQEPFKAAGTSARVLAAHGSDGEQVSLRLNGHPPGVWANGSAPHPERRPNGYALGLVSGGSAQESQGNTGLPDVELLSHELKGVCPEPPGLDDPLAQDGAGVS
Method: as §1, §2, §3

[3] = molecular target: T3, human A2B adenosine receptor (Homo sapiens, UniProt P29275); assay: [3H]DPCPX binding to human A2B receptors expressed in HEK293 cells; design: host or cells: HEK 293 cells (membranes); settings: geometric mean (95% confidence interval); >1000 = no appreciable binding; read-out: Ki, [3H]DPCPX binding to human A2B receptors expressed in HEK293 cells
T3 sequence (P29275 1-332): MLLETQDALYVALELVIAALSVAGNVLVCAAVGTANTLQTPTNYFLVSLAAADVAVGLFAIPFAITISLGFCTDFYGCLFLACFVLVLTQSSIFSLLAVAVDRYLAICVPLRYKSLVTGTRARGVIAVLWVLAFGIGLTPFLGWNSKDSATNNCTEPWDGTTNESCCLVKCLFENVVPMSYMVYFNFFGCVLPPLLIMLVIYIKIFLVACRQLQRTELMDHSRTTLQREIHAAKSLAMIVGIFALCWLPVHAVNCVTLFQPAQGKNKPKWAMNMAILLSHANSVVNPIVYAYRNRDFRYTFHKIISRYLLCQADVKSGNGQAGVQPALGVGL
Method: HEK 293 cells transfected with the human recombinant A2B adenosine receptor were obtained from Receptor Biology, Inc. (Beltsville, Md. USA).
Binding of 1 [^3H]-DPCPX to HEK 293 cells transfected with the human recombinant A2B adenosine receptors was performed according to the method described by Varani et al., 2000. In particular, assays were carried out for 60 minutes at 25° C. in 100 μl of […] Tris HCl buffer, […] MgCl2, 1 mM EDTA, 0.1 mM benzamidine pH 7.4, 2 IU/ml adenosine deaminase containing 40 nM [^3H]-DPCPX, diluted membranes (20 μg of protein/assay) and at least 6–8 different concentration of tested compounds.
as §2, §3

[4] = molecular target: T4, human A1 adenosine receptor (Homo sapiens, UniProt P30542); assay: [3H]DPCPX binding to human A1 receptors expressed in CHO cells
T4 construct: expressed in transfected cells; host or cells: CHO cells (membranes)
T4 sequence (P30542 1-326): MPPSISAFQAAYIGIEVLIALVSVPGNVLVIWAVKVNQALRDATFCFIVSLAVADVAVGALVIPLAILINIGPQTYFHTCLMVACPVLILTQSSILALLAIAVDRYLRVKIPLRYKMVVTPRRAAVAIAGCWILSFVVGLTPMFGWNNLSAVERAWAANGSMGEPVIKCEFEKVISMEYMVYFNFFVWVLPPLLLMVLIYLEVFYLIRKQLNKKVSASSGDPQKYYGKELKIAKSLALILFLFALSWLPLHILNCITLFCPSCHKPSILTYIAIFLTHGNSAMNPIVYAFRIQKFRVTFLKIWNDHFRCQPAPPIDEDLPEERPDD
Method: as §1
Displacement experiments were performed for 120 minutes at 25° C. in 200 μl of buffer containing 1 nM ^3H]-DPCPX 20 μl of diluted membranes (50 μg of protein/assay) and at least 6 to 8 different concentrations of examined compounds.
as §2, §3

[5] = geometric mean (95% confidence interval), >1000 = no appreciable binding

| Ki [1] [nM] | Ki [2] [nM] | Ki [3] [nM] | Ki [4, 5] [nM] | Ki [4] [nM] | SMILES | Ki, [3H]MRE3008F20 binding to human A3 receptors expressed in CHO cells [1] | Ki, [3H]ZM241385 binding to human A2A receptors expressed in CHO cells [2] | Ki, [3H]DPCPX binding to human A1 receptors expressed in CHO cells [4, 5] |
| --- | --- | --- | --- | --- | --- | --- | --- | --- |
| > 1000 | > 1000 | 235 | 201 |  | CCCn1c(=O)c2[nH]c(-c3cc(N)nn3C)nc2n(CCC)c1=O [AS3, 8-(3-amino-1-methyl-1H-pyrazol-5-yl)-1,3-dipropyl-3,7-dihydro-1H-purine-2,6-dione] |  |  |  |
| > 1000 | > 1000 | > 1000 |  | > 1000 | CCCn1c(=O)c2[nH]c(-c3cc(NC(=O)CCCNC(=O)OC(C)(C)C)nn3C)nc2n(CCC)c1=O [AS9, tert-butyl 4-{[5-(2,6-dioxo-1,3-dipropyl-2,3,6,7-tetrahydro-1H-purin-8-yl)-1-methyl-1H-pyrazol-3-yl]amino}-4-oxobutylcarbamate] |  |  |  |
| > 1000 | > 1000 | 2060 | 548 |  | CCCn1c(=O)c2[nH]c(-c3cc(NC(=O)CCCN)nn3C)nc2n(CCC)c1=O [AS10, 4-{[5-(2,6-dioxo-1,3-dipropyl-2,3,6,7-tetrahydro-1H-purin-8-yl)-1-methyl-1H-pyrazol-3-yl]amino}-4-oxobutan-1-aminium chloride] |  |  |  |
| > 1000 | > 1000 | > 1000 |  | > 1000 | CCCn1c(=O)c2[nH]c(-c3cc(NC(=O)COc4ccc(Cl)cc4Cl)nn3C)nc2n(CCC)c1=O [AS12, 2-(2,4-dichlorophenoxy)-N-[5-(2,6-dioxo-1,3-dipropyl-2,3,6,7-tetrahydro-1H-purin-8-yl)-1-methyl-1H-pyrazol-3-yl]acetamide] |  |  |  |
| > 1000 | > 1000 | 96 |  |  | CCCn1c(=O)c2[nH]c(-c3cc(NC(=O)Cc4cccc(OC)c4)nn3C)nc2n(CCC)c1=O [AS13, 2-(3-methoxyphenyl)-N-[5-(2,6-dioxo-1,3-dipropyl-2,3,6,9-tetrahydro-1H-purin-8-yl)-1-methyl-1H-pyrazol-3-yl]acetamide] | no appreciable affinity; also recorded: without significant binding | no appreciable affinity; also recorded: without significant binding | no appreciable affinity; also recorded: without significant binding |
| > 1000 | > 1000 | 103 |  |  | CCCn1c(=O)c2[nH]c(-c3cc(NC(=O)Cc4ccc(O)cc4)nn3C)nc2n(CCC)c1=O [AS17, 2-[4-hydroxyphenyl]-N-[5-(2,6-dioxo-1,3-dipropyl-2,3,6,9-tetrahydro-1H-purin-8-yl)-1-methyl-1H-pyrazol-3-yl]acetamide] | no appreciable affinity; also recorded: without significant binding | no appreciable affinity; also recorded: without significant binding | no appreciable affinity; also recorded: without significant binding |
| > 1000 | > 1000 | > 1000 |  | > 1000 | CCCn1c(=O)c2[nH]c(-c3cc(NC(=O)COc4ccc(Cl)cc4)nn3C)nc2n(CCC)c1=O [AS21, 2-(4-chlorophenoxy)-N-[5-(1,3-dipropyl-2,6-dioxo-2,3,6,7-tetrahydro-1H-purin-8-yl)-1-methyl-1H-pyrazol-3-yl]acetamide] |  |  |  |

Second part, the molecule before the results:

| SMILES | Ki [1] [nM] | Ki [2] [nM] | Ki [3] [nM] | Ki [4, 5] [nM] | Ki [4] [nM] | Ki, [3H]MRE3008F20 binding to human A3 receptors expressed in CHO cells [1] | Ki, [3H]ZM241385 binding to human A2A receptors expressed in CHO cells [2] | Ki, [3H]DPCPX binding to human A1 receptors expressed in CHO cells [4, 5] |
| --- | --- | --- | --- | --- | --- | --- | --- | --- |
| CCCn1c(=O)c2[nH]c(-c3cc([N+](=O)[O-])cn3C)nc2n(CCC)c1=O [AS7, 8-(1-methyl-4-nitro-1H-pyrrol-2-yl)-1,3-dipropyl-3,7-dihydro-1H-purine-2,6-dione] | > 1000 | > 1000 | 342 |  | 122 |  |  |  |
| CCCn1c(=O)c2[nH]c(-c3cc(NC(=O)Cc4ccc([N+](=O)[O-])cc4)nn3C)nc2n(CCC)c1=O [AS15, N-[5-(2,6-dioxo-1,3-dipropyl-2,3,6,9-tetrahydro-1H-purin-8-yl)-1-methyl-1H-pyrazol-3-yl]-2-(4-nitrophenyl)acetamide] | > 1000 | > 1000 | 78 |  |  | no appreciable affinity; also recorded: without significant binding | no appreciable affinity; also recorded: without significant binding | no appreciable affinity; also recorded: without significant binding |
| CCCn1c(=O)c2[nH]c(-c3cc(NC(=O)Cc4ccc(OCc5ccccc5)cc4)nn3C)nc2n(CCC)c1=O [AS16, 2-[4-benzyloxyphenyl]-N-[5-(2,6-dioxo-1,3-dipropyl-2,3,6,9-tetrahydro-1H-purin-8-yl)-1-methyl-1H-pyrazol-3-yl]acetamide] | > 1000 | > 1000 | 56 |  |  | no appreciable affinity; also recorded: without significant binding | no appreciable affinity; also recorded: without significant binding | no appreciable affinity; also recorded: without significant binding |
| CCCn1c(=O)c2c(nc(/C=C/c3cc(COC(=O)c4ccccc4)on3)n2C)n(CCC)c1=O [AS20, {3-[(E)-2-(1,3-dipropyl-7-methyl-2,6-dioxo-2,3,6,7-tetrahydro-1H-purin-8-yl)vinyl]isoxazol-5-yl}methyl benzoate] | > 1000 | > 1000 | > 1000 |  | > 1000 |  |  |  |
| CCCn1c(=O)c2[nH]c(-c3cc(N)n(C)n3)nc2n(CCC)c1=O [AS37, 8-(5-amino-1-methyl-1H-pyrazol-3-yl)-1,3-dipropyl-3,7-dihydro-1H-purine-2,6-dione] |  |  | 58 | 140 |  |  |  |  |
| CC(C)Cn1c(=O)c2nc(-c3cc(OCC(=O)Nc4ccc(F)cc4)nn3C)[nH]c2n(CC(C)C)c1=O [AS66, 2-{[5-(1,3-diisobutyl-2,6-dioxo-2,3,6,9-tetrahydro-1H-purin-8-yl)-1-methyl-1H-pyrazol-3-yl]oxy}-N-(4-fluorophenyl)acetamide] |  |  | 303 | 467 |  |  |  |  |
| CCCn1c(=O)c2[nH]c(-c3cc(OCC(=O)Nc4ccncc4)nn3C)nc2n(CCC)c1=O [AS89] |  |  | 41 | 955 |  |  |  |  |
| CCCn1c(=O)c2[nH]c(-c3cc(OCC(=O)N4CCN(Cc5ccccc5)CC4)nn3C)nc2n(CCC)c1=O [AS90] |  |  | 85 | 810 |  |  |  |  |
| CCCn1c(=O)c2[nH]c(-c3cc(OCC(=O)Nc4ccc(C(C)CC)cc4)nn3C)nc2n(CCC)c1=O (centres unmarked) [AS91, 1,3-di-n-propyl-8-{5-[(4-sec-butyl-phenylcarbamoyl)-methoxy]-2-methyl-2H-pyrazole-3-yl}-xanthine] |  |  | 74 | 1000 |  |  |  |  |

Source: US7205403B2, “8-Heteroaryl xanthine adenosine A2B receptor antagonists” (King Pharmaceuticals Research and Development, Inc., priority 2002, dated 2007)
